# Biological target: T1, F508del (Homo sapiens, UniProt P13569, DEL508-508)
# T1 construct: expressed in transfected cells
# Experiment: Protocol 1: membrane potential optical assay (FLIPR III, voltage sensing dye), identification of potentiator compounds
# Type: cell-based
# Settings: Table 3, compounds of Table 1
# In short: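 Read-out: change in voltage-sensing dye fluorescence (FLIPR III) as a measure of F508del conductance. Temperature-corrected (27° C, 24 hrs) NIH 3T3 cells expressing F508del are pretreated with potentiators, dye-loaded, then stimulated with forskolin under a chloride ion gradient using chloride-free gluconate bath.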
# T1 sequence (P13569 with tags, fused parts or gaps DEL508-508): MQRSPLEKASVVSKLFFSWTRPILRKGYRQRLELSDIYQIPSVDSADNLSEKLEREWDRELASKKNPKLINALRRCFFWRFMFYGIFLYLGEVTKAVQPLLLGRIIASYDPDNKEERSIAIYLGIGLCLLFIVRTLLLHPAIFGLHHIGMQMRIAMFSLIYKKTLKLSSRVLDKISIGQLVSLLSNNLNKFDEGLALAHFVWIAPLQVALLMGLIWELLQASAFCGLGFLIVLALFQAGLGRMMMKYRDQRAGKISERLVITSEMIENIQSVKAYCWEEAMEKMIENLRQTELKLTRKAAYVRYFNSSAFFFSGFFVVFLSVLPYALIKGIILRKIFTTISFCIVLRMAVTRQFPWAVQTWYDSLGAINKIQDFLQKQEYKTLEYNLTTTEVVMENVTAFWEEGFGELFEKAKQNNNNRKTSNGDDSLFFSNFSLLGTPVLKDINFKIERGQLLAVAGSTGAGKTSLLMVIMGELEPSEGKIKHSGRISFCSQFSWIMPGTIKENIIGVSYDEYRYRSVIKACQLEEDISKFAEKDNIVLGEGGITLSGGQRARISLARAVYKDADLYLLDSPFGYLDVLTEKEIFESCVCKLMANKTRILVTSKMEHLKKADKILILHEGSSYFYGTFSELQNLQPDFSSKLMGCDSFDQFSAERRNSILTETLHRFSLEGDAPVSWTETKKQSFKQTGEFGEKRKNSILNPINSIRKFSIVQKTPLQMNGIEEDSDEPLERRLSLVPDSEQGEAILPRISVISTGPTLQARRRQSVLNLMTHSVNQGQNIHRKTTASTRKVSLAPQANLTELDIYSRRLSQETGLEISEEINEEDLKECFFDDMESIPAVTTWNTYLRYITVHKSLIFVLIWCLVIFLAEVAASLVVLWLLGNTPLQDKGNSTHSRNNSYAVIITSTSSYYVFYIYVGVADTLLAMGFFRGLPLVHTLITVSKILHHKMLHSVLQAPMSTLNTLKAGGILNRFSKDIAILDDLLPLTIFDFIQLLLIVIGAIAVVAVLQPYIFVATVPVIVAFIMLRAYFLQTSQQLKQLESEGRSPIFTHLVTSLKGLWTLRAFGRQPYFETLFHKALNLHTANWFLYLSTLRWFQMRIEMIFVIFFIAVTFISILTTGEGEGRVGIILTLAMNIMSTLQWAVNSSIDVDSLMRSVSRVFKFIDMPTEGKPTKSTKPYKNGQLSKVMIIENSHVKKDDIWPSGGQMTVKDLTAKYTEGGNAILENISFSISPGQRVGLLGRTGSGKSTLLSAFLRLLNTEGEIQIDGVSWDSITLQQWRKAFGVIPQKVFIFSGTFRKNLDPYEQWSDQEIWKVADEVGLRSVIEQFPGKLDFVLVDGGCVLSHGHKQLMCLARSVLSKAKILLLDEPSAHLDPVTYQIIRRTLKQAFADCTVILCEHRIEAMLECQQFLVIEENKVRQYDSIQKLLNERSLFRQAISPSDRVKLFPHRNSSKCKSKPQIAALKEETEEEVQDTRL
row,EC30,Structure (SMILES)
1,++ (“++” means between 3 uM and 10 uM),"CC(=O)N1CCc2cc(Nc3cccc(S(=O)(=O)NC(=O)c4cccnc4N4CC(C)CC4(C)C)n3)ccc21 (stereo not shown) [Compound 1877, N—[[6-[(1-acetylindolin-5-yl)amino]-2-pyridyl]sulfonyl]-2-(2,2,4-trimethylpyrrolidin-1-yl)pyridine-3-carboxamide]"
2,++ (“++” means between 3 uM and 10 uM),"COc1cc(OC)cc(-c2ccc(C(=O)NS(=O)(=O)c3ccc[nH]c3=O)c(N3C[C@@H](C)CC3(C)C)n2)c1 [Compound 1878, 6-(3,5-dimethoxyphenyl)-N-[(2-oxo-1H-pyridin-3-yl)sulfonyl]-2-[(4S)-2,2,4-trimethylpyrrolidin-1-yl]pyridine-3-carboxamide]"
3,+++ (“+++” means <3 uM),"CC1CN(c2ncccc2C(=O)NS(=O)(=O)c2cccc(NCCCN(C)c3ccccc3)n2)C(C)(C)C1 (stereo not shown) [Compound 1879, N—[[6-[3-(N-methylanilino)propylamino]-2-pyridyl]sulfonyl]-2-(2,2,4-trimethylpyrrolidin-1-yl)pyridine-3-carboxamide]"
4,++ (“++” means between 3 uM and 10 uM),"COc1c(C)cccc1-c1ccc(C(=O)NS(=O)(=O)c2ccc[nH]c2=O)c(N2C[C@@H](C)CC2(C)C)n1 [Compound 1880, 6-(2-methoxy-3-methyl-phenyl)-N-[(2-oxo-1H-pyridin-3-yl)sulfonyl]-2-[(4S)-2,2,4-trimethylpyrrolidin-1-yl]pyridine-3-carboxamide]"
5,+++ (“+++” means <3 uM),"C/C=C/COc1cccc(S(=O)(=O)NC(=O)c2cccnc2N2CC(C)CC2(C)C)n1 (stereo not shown) [Compound 1881, N—[[6-[(E)-but-2-enoxy]-2-pyridyl]sulfonyl]-2-(2,2,4-trimethylpyrrolidin-1-yl)pyridine-3-carboxamide]"
6,+ (“+” means greater than 10 uM),"CC(C)CS(=O)(=O)N1CCC=C(c2ccc(C(=O)NS(=O)(=O)c3cccc(N)n3)c(N3C[C@@H](C)CC3(C)C)n2)C1 [Compound 1882, N-[(6-amino-2-pyridyl)sulfonyl]-6-(1-isobutylsulfonyl-3,6-dihydro-2H-pyridin-5-yl)-2-[(4S)-2,2,4-trimethylpyrrolidin-1-yl]pyridine-3-carboxamide]"
7,+++ (“+++” means <3 uM),C[C@@H]1CN(c2nc(C(C)(C)C)c(C(O)C(O)C(C)(C)C)cc2C(=O)NS(=O)(=O)c2cccc(N)n2)C(C)(C)C1 (stereo partly shown) [Compound 1883]
8,++ (“++” means between 3 uM and 10 uM),"COc1ccc(-c2cnc(N3CC(C)CC3(C)C)c(C(=O)NS(=O)(=O)c3cccc(N)n3)c2)cn1 (stereo not shown) [Compound 1886, N-[(6-amino-2-pyridyl)sulfonyl]-5-(6-methoxy-3-pyridyl)-2-(2,2,4-trimethylpyrrolidin-1-yl)pyridine-3-carboxamide]"
9,+++ (“+++” means <3 uM),"[2H]C([2H])([2H])C([2H])(COc1ccn(-c2ccc(C(=O)NS(=O)(=O)c3cccnc3N)c(N3C[C@@H](C)CC3(C)C)n2)n1)C([2H])([2H])[2H] [Compound 1887, N-[(2-amino-3-pyridyl)sulfonyl]-6-[3-[2,3,3,3-tetradeuterio-2-(trideuteriomethyl)propoxy]pyrazol-1-yl]-2-[(4S)-2,2,4-trimethylpyrrolidin-1-yl]pyridine-3-carboxamide]"
10,++ (“++” means between 3 uM and 10 uM),"CC1CN(c2ncc(C3=CC4CCC3C4)cc2C(=O)NS(=O)(=O)c2cccc(N)n2)C(C)(C)C1 (stereo not shown) [Compound 1888, N-[(6-amino-2-pyridyl)sulfonyl]-5-(3-bicyclo[2.2.1]hept-2-enyl)-2-(2,2,4-trimethylpyrrolidin-1-yl)pyridine-3-carboxamide]"
11,+++ (“+++” means <3 uM),"Cc1cc(OC(C)C)cc(-c2cnc(N3CC(C)CC3(C)C)c(C(=O)NS(=O)(=O)c3cccc(N)n3)c2)c1 (stereo not shown) [Compound 1889, N-[(6-amino-2-pyridyl)sulfonyl]-5-(3-isopropoxy-5-methyl-phenyl)-2-(2,2,4-trimethylpyrrolidin-1-yl)pyridine-3-carboxamide]"
12,++ (“++” means between 3 uM and 10 uM),"Cc1cccc(C)c1Oc1nc(-c2cc(F)cc(OCC(C)(C)O)c2)ccc1C(=O)NS(=O)(=O)c1cccc(N)n1 [Compound 1890, N-[(6-amino-2-pyridyl)sulfonyl]-2-(2,6-dimethylphenoxy)-6-[3-fluoro-5-(2-hydroxy-2-methyl-propoxy)phenyl]pyridine-3-carboxamide]"
13,+++ (“+++” means <3 uM),"CC(Oc1nc(N2C[C@@H](C)CC2(C)C)c(C(=O)NS(=O)(=O)c2cccc(N)n2)cc1F)C1CCOCC1 (stereo partly drawn) [Compound 1891, N-[(6-amino-2-pyridyl)sulfonyl]-5-fluoro-6-(1-tetrahydropyran-4-ylethoxy)-2-[(4S)-2,2,4-trimethylpyrrolidin-1-yl]pyridine-3-carboxamide]"
14,+++ (“+++” means <3 uM),"Cc1ccc(CNc2cccc(S(=O)(=O)NC(=O)c3cccnc3N3CC(C)CC3(C)C)n2)cc1 (stereo not shown) [Compound 1892, N—[[6-(p-tolylmethylamino)-2-pyridyl]sulfonyl]-2-(2,2,4-trimethylpyrrolidin-1-yl)pyridine-3-carboxamide]"
15,+++ (“+++” means <3 uM),"CC(C)CCOc1cccc(-c2cnc(N3CC(C)CC3(C)C)c(C(=O)NS(=O)(=O)c3cccc(N)n3)c2)c1 (stereo not shown) [Compound 1894, N-[(6-amino-2-pyridyl)sulfonyl]-5-(3-isopentyloxyphenyl)-2-(2,2,4-trimethylpyrrolidin-1-yl)pyridine-3-carboxamide]"
16,+++ (“+++” means <3 uM),"CC(C)Oc1ccccc1-c1ccc(C(=O)NS(=O)(=O)N2CC[C@H](N)C2)c(N2C[C@@H](C)CC2(C)C)n1 [Compound 1897, N-[(3S)-3-aminopyrrolidin-1-yl]sulfonyl-6-(2-isopropoxyphenyl)-2-[(4S)-2,2,4-trimethylpyrrolidin-1-yl]pyridine-3-carboxamide]"
17,++ (“++” means between 3 uM and 10 uM),"Cc1ccccc1Nc1cccc(S(=O)(=O)NC(=O)c2cccnc2N2CC(C)CC2(C)C)n1 (stereo not shown) [Compound 1898, N—[[6-(2-methylanilino)-2-pyridyl]sulfonyl]-2-(2,2,4-trimethylpyrrolidin-1-yl)pyridine-3-carboxamide]"
18,+++ (“+++” means <3 uM),"CC1CN(c2ncccc2C(=O)NS(=O)(=O)c2cccc(OCc3ccc(F)cc3Cl)n2)C(C)(C)C1 (stereo not shown) [Compound 1899, N—[[6-[(2-chloro-4-fluoro-phenyl)methoxy]-2-pyridyl]sulfonyl]-2-(2,2,4-trimethylpyrrolidin-1-yl)pyridine-3-carboxamide]"
19,++ (“++” means between 3 uM and 10 uM),"C[C@@H]1CN(c2nc(-c3ccc(C(F)(F)F)cc3)ccc2C(=O)NS(=O)(=O)N2CC[C@H](N)C2)C(C)(C)C1 [Compound 1900, N-[(3S)-3-aminopyrrolidin-1-yl]sulfonyl-6-[4-(trifluoromethyl)phenyl]-2-[(4S)-2,2,4-trimethylpyrrolidin-1-yl]pyridine-3-carboxamide]"
20,+++ (“+++” means <3 uM),"CC1CN(c2ncccc2C(=O)NS(=O)(=O)c2cccc(Oc3ccc(C(C)C)cc3)n2)C(C)(C)C1 (stereo not shown) [Compound 1902, N—[[6-(4-isopropylphenoxy)-2-pyridyl]sulfonyl]-2-(2,2,4-trimethylpyrrolidin-1-yl)pyridine-3-carboxamide]"
21,+++ (“+++” means <3 uM),"CC(C)Oc1ccc(-c2ccc(C(=O)NS(=O)(=O)c3cccnc3N)c(N3C[C@@H](C)CC3(C)C)n2)cc1 [Compound 1903, N-[(2-amino-3-pyridyl)sulfonyl]-6-(4-isopropoxyphenyl)-2-[(4S)-2,2,4-trimethylpyrrolidin-1-yl]pyridine-3-carboxamide]"

row,Structure (SMILES),EC30
1,"COc1ccc(S(=O)(=O)NC(=O)c2ccc(-c3cc(F)cc(OCC(C)C)c3)nc2N2C[C@@H](C)CC2(C)C)cc1 [Compound 1876, 6-(3-fluoro-5-isobutoxy-phenyl)-N-(4-methoxyphenyl)sulfonyl-2-[(4S)-2,2,4-trimethylpyrrolidin-1-yl]pyridine-3-carboxamide]",+++ (“+++” means <3 uM)
2,"CC1CCC(Oc2cccc(S(=O)(=O)NC(=O)c3cccnc3N3CC(C)CC3(C)C)n2)C1 (stereo not shown) [Compound 1884, N—[[6-(3-methylcyclopentoxy)-2-pyridyl]sulfonyl]-2-(2,2,4-trimethylpyrrolidin-1-yl)pyridine-3-carboxamide]",+++ (“+++” means <3 uM)
3,"CC(C)COc1cc(F)cc(-c2ccc(C(=O)NS(=O)(=O)c3cccc(O)c3)c(N3C[C@@H](C)CC3(C)C)n2)c1 [Compound 1885, 6-(3-fluoro-5-isobutoxy-phenyl)-N-(3-hydroxyphenyl)sulfonyl-2-[(4S)-2,2,4-trimethylpyrrolidin-1-yl]pyridine-3-carboxamide]",+++ (“+++” means <3 uM)
4,"CO[C@@H]1CCN(S(=O)(=O)NC(=O)c2ccc(-c3cc(F)cc(OCC(C)C)c3)nc2N2C[C@@H](C)CC2(C)C)C1 [Compound 1893, 6-(3-fluoro-5-isobutoxy-phenyl)-N-[(3R)-3-methoxypyrrolidin-1-yl]sulfonyl-2-[(4S)-2,2,4-trimethylpyrrolidin-1-yl]pyridine-3-carboxamide]",+++ (“+++” means <3 uM)
5,"CC(C)COc1cnn(-c2ccc(C(=O)NS(=O)(=O)c3cccnc3N)c(N3C[C@@H](C)CC3(C)C)n2)c1 [Compound 1895, N-[(2-amino-3-pyridyl)sulfonyl]-6-(4-isobutoxypyrazol-1-yl)-2-[(4S)-2,2,4-trimethylpyrrolidin-1-yl]pyridine-3-carboxamide]",+++ (“+++” means <3 uM)
6,"CC(C)COc1ccn(-c2ccc(C(=O)NS(=O)(=O)c3ccc[nH]c3=O)c(N3C[C@@H](C)CC3(C)C)n2)n1 [Compound 1896, 6-(3-isobutoxypyrazol-1-yl)-N-[(2-oxo-1H-pyridin-3-yl)sulfonyl]-2-[(4S)-2,2,4-trimethylpyrrolidin-1-yl]pyridine-3-carboxamide]",+++ (“+++” means <3 uM)
7,"CC(C)COc1cc(F)cc(-c2ccc(C(=O)NS(=O)(=O)c3cccc(N)n3)c(N3CCCCC(C)(C)C3)n2)c1 [Compound 1901, N-[(6-amino-2-pyridyl)sulfonyl]-2-(3,3-dimethylazepan-1-yl)-6-(3-fluoro-5-isobutoxy-phenyl)pyridine-3-carboxamide]",+++ (“+++” means <3 uM)

# Reference: patent US10758534B2 (Vertex Pharmaceuticals Incorporated, priority 2014, dated 2020)
